Source: patent publication US20090203877A1, “X-RAY-DENSE CONJUGATE” (Eberhard-Karls-Universitaet Tuebingen Universitaetsklinkum, priority 2006, published 2009)
Entries after “also recorded” stand apart in the source; their conditions may differ.

Legend:
[1] = tested on: human malignant U373 glioma cells; experiment: Cell viability / cell death (MTT test, propidium iodide, annexin-V-Alexa 568 binding, FACS scatter morphology); settings: 260 μM in PBS, 20 min, substance alone
Procedure: Human malignant U373-glioma cells were grown to 70% confluency in RPMI-1640 Ready Mix Medium containing L-Glutamine and 10% FBS-Gold (PAA laboratories, Pasching, Austria) at 37° C., 5% CO2 (vol/vol), in 4-well-plates (NUNC, Wiesbaden, Germany) with about 300,000 cells pro well. […] After this, the cells were washed three times with buffer and then incubated with Ready Mix Medium again. Cell viability was then assessed by the addition of methyl-thiazoyl-tetrazolium (MTT) salt (Sigma-Aldrich, Germany) at a concentration of 15 mg/ml. After 20 minutes, the production of formazan was investigated. When blue formazan granules were detected, propidium iodine (PI) was added to the medium (1 μM PI; Molecular Probes, Eugene, Oreg., USA) to detect cells with damaged cell membranes. […] Pictures were taken with a 3-CCD color video camera (MC3254P, Sony, Japan) and the Axiovision Software (Carl Zeiss, Jena, Germany). The intensity of cell fluorescence was recorded at the exposure time necessary for the production of the fluorescence images.
After imaging, Accutase™ (PAA laboratories, Pasching, Austria) was added to the wells to achieve detachment of the cells for further FACS analysis. Fluorescence was measured in a Becton Dickinson FACSCalibur. A total of 20,000 events per sample were analyzed. The investigations were performed in triplicate.
A sample of cells from each Eppendorf tube was subjected to the MTT test (described under 1.4) to determine microscopically whether the cells were viable. In vitro CT of the cell pellets was performed with a Somatom Sensation 16 (Siemens) which is used for routine clinical investigations.
Cells were incubated for 20 minutes with each of the conjugates dissolved in 0.1% DMSO/PBS at 260 μm. The cells were also incubated with TIBA and both of the non-TIBA-containing conjugates (3 and 4) separately in 0.1% DMSO/OBS at 260 μm. Both TIBA and the conjugates were dissolved in 0.1% DMSO/PBS at 260 μm for incubation due to the insolubility of TIBA (but not the conjugates) in pure PBS. As controls, the cells were incubated with PBS alone, 0.1% DMSO/PBS alone, and TIBA alone (260 μm in 0.1% DMSO/PBS).
The detection of phosphatidyl serine in the outer membrane leaflet of apoptotic cells was performed with the Annexin-V-Alexa™-568-reagent according to manufacturer's protocol (Roche Molecular Biochemicals, Indianapolis, USA). The confocal laser-scanning microscopy was performed on an inverted LSM 510 laser-scanning microscope (Carl Zeiss, Jena, Germany) (objectives: LD Achroplan 40×0.6, Plan Neofluar 20×0.50, 40×0.75). For fluorescence excitation, the 488 nm line of an argon-ion laser and the […] line of a helium-neon laser with appropriate beam splitters and barrier filters were used for FITC and Alexa respectively. Superimposed images of FITC- and Alexa-stained samples were created by overlaying coincident views. All measurements were performed on living, non-fixed cells.
Human malignant LN18 and U373 glioma cells were cultivated in four-well plates (NUNC, Wiesbaden, Germany) (about 300,000 cells per well) as described under 1.5. […] The cells were also coincubated either with CIBA, FIBA or TBPI as well as the NLS-FITC conjugate 3 (each 260 μM). As a control cells were used which were only incubated either with CIBA, FIBA or TBPI (260 μM in PBS) alone. After the incubation the cells were washed three times with PBS and in the following again incubated in Ready Mix Medium. The FITC-labelled conjugates and the Alexa-Annexin for the detection of phosphatidylserine as a signal of the cell death were localized with the confocal laser microscopy (CLSM) as in 1.6.1. All measurements were performed on living cells.

[2] = tested on: human malignant LN18 glioma cells; experiment: Cell viability / cell death (annexin-V-Alexa 568 binding, propidium iodide, FACS scatter morphology); type: cell-based; settings: for influence on the cell viability: free compound alone, each 250 μM (FIG. 15)
Procedure: All measurements were performed on living, non-fixed cells. […] All measurements were performed on living cells. […] All measurements were performed on living cells in triplicates. […] All measurements were performed on living cells.

[3] = tested on: human malignant LN18 glioma cells; experiment: Uptake/staining of cells by FITC-labelled conjugates (CLSM, FACS, semi-thin sections); type: cell-based; settings: for staining rate / number of stained cells: free compound co-incubated with conjugate 3 (260 μM); for cells strongly stained by FITC, FACS histogram: free unbound compound incubated in combination with conjugate 3 (260 μM)
Procedure: (§1) The human malignant U373 and LN18 glioma cells were cultivated in 75 cm^2 culture flasks (Corning Costar) (70% confluency) under the conditions as described under 1.4, detached from the flask bottom with Accutase™ (PAA Laboratories) and in the following distributed on Eppendorf tubes (Eppendorf, Hamburg, Germany) (6×10^6 per tube). The cells in the first tube serve as a control (only PBS buffer only). The cells in the other ten tubes were each incubated with benzoic acid (BA), monoiodobenzoic acid (MIBA) or diiodobenzoic acid (DIBA) alone (260 μM), conjugate 3 alone (260 μM), conjugate 3 plus either BA, MIBA or DIBA (260 μM), respectively, and the conjugates 9, 10, and 11 alone. (260 μM).
After an incubation of 20 minutes at 37° C./5% CO2 the cells were washed three times with PBS buffer and centrifuged at 800 rpm (rounds per minute) for 5 minutes. The fluorescence was measured in Becton Dickinson FACSCalibur as described under 1.4. The computer tomography was performed as described under 1.5.1. The examinations were repeated two times. […]
(§2) The FACS analysis was performed as described under 1.4. The assay was repeated two times.
(§3) For the CT and FACS examinations human LN18 and U373 glioma cells were cultivated in 75 cm^2 culture flasks (70% confluency) (conditions as described under section 1). Accutase™ (PAA Laboratories) was added to detach the cell from the culture bottom. The cells were collected and then distributed on Eppendorf-tubes (6×10^6 cells per tube). […] The next three tubes were used for the coincubation of the cells either with trichlorobenzoic acid (TCBA), trifluorobenzoic acid (TFBA) or tribromophenyl Isocyanat (TBPI) and the NLS-FITC-conjugate 3 (260 μM). As control cells were used which were only either incubated with CIBA, FIBA, TBPI (in each case 260 μM in PBS) or with PBS-buffer (native control) alone. […] The computer tomography and FACS analysis of the cell centrifuges were performed as described in 1.5.1 or 1.4, respectively for three times.
All measurements were performed on living cells.
All measurements were performed on living cells in triplicates.
A part of the cells which were stained for the FACS analysis, was fixed by paraformaldehyl with 2% Agar, dehydrogenized in ethanol, embedded in Lowicryl K4M (Polysciences, Eppelheim, Germany) and according to the information of the manufacturer UV-polymerised at room temperature. Semi-thin sections (about 0.4 μm) were cut and evaluated by means of fluorescence microscopy.

[4] = tested on: human vascular endothelial cells; settings: traditional contrast media; cited from earlier work
[5] = tested on: human malignant U373 glioma cells; experiment: Uptake/staining of cells by FITC-labelled conjugates (fluorescence microscopy, CLSM, FACS, semi-thin sections); type: cell-based; settings: free unbound compound incubated in combination with conjugate 3 (260 μM)
Procedure: Fluorescence was measured in a Becton Dickinson FACSCalibur. […] The investigations were performed in triplicate.
For CT and FACS human U373 glioma cells were grown under the same conditions in 75 cm^2 culture flasks (Corning Costar, Bodenheim, Germany) (70% confluency). Accutase™ (PAA laboratories, Pasching, Austria) was added to achieve detachment of the cells which were harvested and subsequently aliquoted into Eppendorf tubes (6×10^6 cells per tube). As in the investigations performed by fluorescence microscopy, the cells in the first tube served as a control (PBS only). The cells in the other tubes were incubated with 260 μM Ultravist, 260 μM TIBA in PBS and 26 μM, 260 μM and 2.6 mM conjugates 1-4 in PBS. After a 20 minute incubation period at 37° C. in an atmosphere of 5% CO2, the cells were washed three times in PBS and centrifuged at 800 rpm for 5 minutes.
The FACS analysis was performed as described under 1.4.
as §1
After an incubation of 20 minutes at 37° C./5% CO2 the cells were washed three times with PBS buffer and centrifuged at 800 rpm (rounds per minute) for 5 minutes. The fluorescence was measured in Becton Dickinson FACSCalibur as described under 1.4. The computer tomography was performed as described under 1.5.1. The examinations were repeated two times.
For the CT and FACS examinations human LN-18 and U373 glioma cells were cultivated in 75 cm^2 culture flasks (Corning Costar) (70% confluency) (conditions as described under 1.4). Accutase™ (PAA Laboratories) was added to detach the cells from the bottom of the culture flasks. The cells were collected and then distributed on Eppendorf tubes (6×10^6 cells per tube). The cells in the first two tubes serve as a control (in each case only PBS, LN18 and U373 glioma cells, native). The cells in the other tubes (in each case LN18 and U373 glioma cells) were incubated with a 260 μM or 2.6 mM solution of the conjugate 12 for 20 minutes at 37° C. and 5% CO2 and in the following washed for three times with PBS buffer and centrifuged for 5 minutes with 800 rpm (rounds per minute). For a small amount of the cells it was tested by the MMT test (see 1.4) how many of the cells were still viable. The computer tomography of the cell centrifuges was performed with the Somatom Sensation 16 (Siemens).
as §2
as §3, with “times. […]” for “times.”

[6] = 260 μM, 20 min, substance alone
[7] = free compound co-incubated with conjugate 3 (260 μM)

Row | Compound | cytotoxic effects / signs of cell death [1] | cell death / vitality (annexin-V-Alexa 568, propidium iodide) [2, 6] | cell death / vitality (annexin-V-Alexa 568, propidium iodide) [2, 7] | staining rate / number of stained cells [3] | influence on the cell viability [2] | also measured
1 | O=C(O)c1ccccc1 [BA, benzoic acid, reference compound] | did not result in cytotoxic effects | did not result in cytotoxic effects | did not result to a considerable change | did not result to a considerable change | – | –
2 | O=C(O)c1cc(I)ccc1I [DIBA, 2,5-diiodobenzoic acid, reference compound] | did not result in cytotoxic effects | did not result in cytotoxic effects | did not result in a binding of annexin-V-Alexa™ 568; also recorded: did not result to a considerable change | did not result in a higher staining rate; also recorded: did not result to a considerable change | – | –
3 | O=C(O)c1ccc(I)cc1 [MIBA, 4-monoiodobenzoic acid, reference compound] | did not result in cytotoxic effects | did not result in cytotoxic effects | did not result in a binding of annexin-V-Alexa™ 568; also recorded: did not result to a considerable change | did not result in a higher staining rate; also recorded: did not result to a considerable change | – | –
4 | CC(=O)Nc1c(I)c(NC(C)=O)c(I)c(C(=O)O)c1I [diatrizoate] | – | – | – | – | – | concentration at which apoptosis is induced [4]: 250 mg iodine per millilitre
5 | CN(C(=O)CC(=O)N(C)c1c(I)c(C(=O)NC(CO)C(O)CO)c(I)c(C(=O)NC(CO)C(O)CO)c1I)c1c(I)c(C(=O)NC(CO)C(O)CO)c(I)c(C(=O)NC(CO)C(O)CO)c1I (centres unmarked) [iotrolan] | – | – | – | – | – | concentration at which apoptosis is induced [4]: 250 mg iodine per millilitre
6 | tribromophenylisocyanate [TBPI] | – | does not result in a cell death | without an impairment of the vitality | only in the staining of the nucleus in few cells | did not result in any influence on the cell viability | cell death / vitality (annexin-V-Alexa 568, propidium iodide) ([2]; free compound co-incubated with conjugate 3 (260 μM), listed as TPBI): did not result in any considerable change; staining rate / number of stained cells ([3]; listed as TPBI): did not result in any considerable change
7 | trichlorobenzoic acid [TCBA, reference compound] | – | – | did not result in any considerable change | did not result in any considerable change | did not result in any influence on the cell viability | cells strongly stained by FITC, FACS histogram [5]: no shift of the histogram peak to the right; cell death / vitality (annexin-V-Alexa 568, propidium iodide) ([2]; free compound co-incubated with conjugate 3 (260 μM), listed as trichlorobenzoic acid): remain vital; staining rate / number of stained cells ([3]; listed as trichlorobenzoic acid): only few cells stained in their nuclei; cells strongly stained by FITC, FACS histogram [3]: no shift of the histogram peak to the right
8 | trifluorobenzoic acid [TFBA, reference compound] | – | – | remain vital; also recorded: did not result in any considerable change | few stained cells; also recorded: did not result in any considerable change | did not result in any influence on the cell viability | cells strongly stained by FITC, FACS histogram [5]: no shift of the histogram peak to the right; cells strongly stained by FITC, FACS histogram [3]: no shift of the histogram peak to the right
